Tests used:
P. aeruginosa K1119 = assay: MIC of bacterial growth, macrodilution (Table 2); type: cell-based; conditions: Pseudomonas aeruginosa
Procedure: (§1) Bacterial strains and growth conditions. Luria-Bertani (LB) media (10 g/L tryptone, 10 g/L NaCl, 5 g/L yeast extract, pH 7.2) was used to grow B. subtilis 168, S. aureus FRI100, and P. aeruginosa K1115 strains. For P. aeruginosa PAO1 and K1119 strains and two E. coli BW25113 strains, M8 minimal media (241 mg/L MgSO4, 4 mg/L glucose, 5 mg/L casamino acids, 12.8 g/L Na2HPO4.7H2O, 3 g/L KH2PO4, and 0.5 g/L NaCl) was used. PYE media (2 g/L peptone, 1 g/L yeast extract, 0.8 mM MgSO4, and 0.5 mM CaCl2) was used for culturing C. crescentus cells at 30° C. All cultures were grown at 37° C., except for C. crescentus (30° C.). All cultures were grown while shaking at 200 rpm.
(§2) Determination of the minimum inhibitory concentration (MIC) of bacterial growth. The MIC of various organisms in liquid media was determined using the macrodilution method according to the NCCLS guidelines. For the starting inoculum, cultures were diluted to contain approximately 5×10^5 cells/mL in growth media. To create a two-fold dilution series for the macrodilution technique, each compound was added to the first culture tube (4 mL total volume) at the highest concentration. 2 mL of this culture was diluted into an equal volume of inoculated media (a two-fold dilution). The final volume for each culture was 2 mL.

E. coli BW25113 = assay: MIC of bacterial growth, macrodilution (Table 2); type: cell-based; conditions: Escherichia coli
Procedure: as §1, §2

P. aeruginosa PAO1 = assay: MIC of bacterial growth, macrodilution (Table 2); type: cell-based; conditions: Pseudomonas aeruginosa
Procedure: as §1, §2

P. aeruginosa K1115 = assay: MIC of bacterial growth, macrodilution (Table 2); type: cell-based; conditions: Pseudomonas aeruginosa
Procedure: as §1, §2

E. aerogenes = assay: MIC of bacterial growth (Table 2); type: cell-based, Enterobacter aerogenes; conditions: Klebsiella aerogenes; E. aerogenes clinical isolate (Table 2)
Procedure: as §2

E. coli BW25113 ΔtolC [1] = assay: MIC of DCAP analogs, LB media, macrodilution (CLSI); type: cell-based; conditions: Escherichia coli
Procedure: Luria-Bertani (LB) media (10 g/L tryptone, 10 g/L NaCl, 5 g/L yeast extract, pH 7.0) was used to grow all the strains represented in Tables 5 and 6. All the cultures were grown at 37° C. All the E. coli strains were grown while shaking at 200 rpm and the clinical pathogens were statically incubated. […]

E. coli BW25113 ΔtolC [2] = assay: MIC of bacterial growth, macrodilution (Table 2); type: cell-based, Escherichia coli
Procedure: as §1, §2

C. crescentus cells = assay: Cell lysis observed by phase contrast microscopy; type: cell-based, Caulobacter crescentus
Procedure: The lysed cells appear fainter in phase contrast images, compared to un-lysed cells (e.g., a cell in the white circle).
At high concentrations of DCAP (≥75 μM), cell lysis within minutes after treatment was observed (FIG. 4).

OCC(CO)(CO)NCC(O)Cn1c2ccc(Cl)cc2c2cc(Cl)ccc21 (stereo not shown) [DCAP, 2-((3-(3,6-dichloro-9H-carbazol-9-yl)-2-hydroxypropyl)amino)-2-(hydroxymethyl)propane-1,3-diol]
MIC (P. aeruginosa K1119): 160 µM
MIC (E. coli BW25113): 80 µM
MIC (P. aeruginosa PAO1): 160 µM
MIC (P. aeruginosa K1115): 80 µM
MIC (E. aerogenes): 200 µM
MIC (E. coli BW25113 ΔtolC [1]; BW25113): 20 µM
MIC (E. coli BW25113 ΔtolC [1]; BW25113, read-out: MIC (ΔtolC E. coli)): 20 µM
Reduction of MIC on deleting tolC in E. coli BW25113 (E. coli BW25113 ΔtolC [2]; BW25113 vs BW25113 ΔtolC): 4 fold
MIC (E. coli BW25113 ΔtolC [2]; Escherichia coli, BW25113): 20 µM
Concentration at which cell lysis was observed within minutes after treatment (C. crescentus cells): ≥ 75 µM

Source: patent publication US10314816B2, “Antimicrobial compounds, compositions and methods of use thereof” (Wisconsin Alumni Research Foundation, priority 2012, dated 2019)
